These results are taken from patent publication US20230041996A1, “CALCIUM-SENSING RECEPTOR AGONIST COMPOUND AND APPLICATION THEREOF” (BEIJING TUO JIE BIOPHARMACEUTICAL CO. LTD., priority 2019, published 2023).

Series [1] concerns the target T1, human calcium-sensing receptor (CaSR) (Homo sapiens, UniProt P41180).
T1 construct: host or cells: HEK293
T1 sequence (P41180 20-1078): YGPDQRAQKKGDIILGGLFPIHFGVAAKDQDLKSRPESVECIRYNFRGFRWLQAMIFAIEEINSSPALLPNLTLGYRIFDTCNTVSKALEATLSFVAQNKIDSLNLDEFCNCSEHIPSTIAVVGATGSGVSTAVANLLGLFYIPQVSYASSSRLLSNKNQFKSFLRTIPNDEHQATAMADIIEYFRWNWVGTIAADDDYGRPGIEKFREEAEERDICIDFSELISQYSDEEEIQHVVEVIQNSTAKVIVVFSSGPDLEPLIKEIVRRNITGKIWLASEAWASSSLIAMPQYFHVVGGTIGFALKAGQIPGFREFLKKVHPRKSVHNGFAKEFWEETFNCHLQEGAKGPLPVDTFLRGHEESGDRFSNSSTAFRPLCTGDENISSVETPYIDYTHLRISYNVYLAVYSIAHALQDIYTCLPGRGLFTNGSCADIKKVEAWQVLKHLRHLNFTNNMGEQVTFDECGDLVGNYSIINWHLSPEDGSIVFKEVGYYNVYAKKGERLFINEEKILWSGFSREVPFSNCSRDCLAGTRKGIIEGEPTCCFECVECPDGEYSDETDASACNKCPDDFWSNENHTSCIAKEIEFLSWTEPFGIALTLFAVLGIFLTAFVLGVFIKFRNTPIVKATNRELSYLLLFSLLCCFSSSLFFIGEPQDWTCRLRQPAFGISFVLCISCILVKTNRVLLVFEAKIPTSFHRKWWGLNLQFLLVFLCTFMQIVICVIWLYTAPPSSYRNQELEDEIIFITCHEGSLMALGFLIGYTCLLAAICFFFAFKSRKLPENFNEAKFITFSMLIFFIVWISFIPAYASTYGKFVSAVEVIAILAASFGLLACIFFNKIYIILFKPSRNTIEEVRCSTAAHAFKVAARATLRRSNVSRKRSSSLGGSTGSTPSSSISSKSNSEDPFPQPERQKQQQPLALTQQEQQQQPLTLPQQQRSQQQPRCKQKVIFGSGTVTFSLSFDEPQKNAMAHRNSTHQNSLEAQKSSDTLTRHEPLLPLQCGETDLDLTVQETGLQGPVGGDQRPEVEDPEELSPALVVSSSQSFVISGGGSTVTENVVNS
Nature of the series: Agonist activity on human calcium-sensing receptor (IP-One HTRF in stably transfected HEK293/CaSR cells). The format is cell-based. Particulars: HEK293/CaSR cells, IP-One production, 60 min at 37° C., CaCl2 1.2 mM; read-out: EC50 for calcium-sensing receptor. The procedure:
3.1.1 Objective: The test example is intended to measure the agonist activity of compounds 1-38 on the human calcium-sensing receptor (CaSR).
Stably transfected HEK293/CaSR cells (source: Pharmaron) were cultured in a complete medium (composition: DMEM, high glucose+10% FBS+2 mM GlutaMAX+1× Penicillin-Streptomycin+200 μg/mL Hygromycin B) and incubated at 37° C./5% CO2 till 70%-90% cell confluence. The cells were digested with TrypLE, inoculated into 384-well cell culture plates, and cultured overnight at 37° C./5% CO2. After buffer exchange, stimulation buffer (HEPES 10 mM, MgCl2 0.5 mM, KCl 4.2 mM, NaCl 146 mM, glucose 5.5 mM, LiCl 50 mM, CaCl2 1.2 mM) and various concentrations of the test example compounds were added and incubated at 37° C. for 60 min. Production of IP-One in cells was detected according to the procedures in the Cisbio IP-One Tb kit instructions. The EC50 values of various test example compounds in influencing human calcium-sensing receptor was calculated by software after the raw data of the example compounds were collected, so as to evaluate the agonist activity of the example compounds on human calcium-sensing receptor.
HTRF signal was read by an EnVision detector with an excitation wavelength of 320 nm and emission wavelengths of 620 nm and 665 nm. The signal ratio (665 nm/620 nm×10,000) was calculated and fitted non-linearly to the sample concentration in GraphPad Prism 6 using a four-parameter equation to give EC50 values of the test example compounds 1-38.

Series [2] concerns rat peritoneal mast cells. The series can be described thus: In vitro histamine release in rat peritoneal mast cells (histamine ELISA). The format is cell-based. Particulars: test compound final concentration 10 μM, 15 min at 37° C., relative to PBS buffer (1.00). The procedure: To evaluate the in vitro histamine release levels induced by some of the test example compounds, rat peritoneal mast cells were collected by lavaging rat peritoneum with a lavage buffer (cold HBSS+25 mM HEPES containing heparin 5 U/mL, pH 7.4). After collection, the cells were centrifuged, and the lavage buffer was discarded. The cells were resuspended and washed twice with a stimulation buffer (HBSS+25 mM HEPES+1 mM CaCl2), pH 7.4). The cells were plated at a density of 10^5 cell/well (200 μL/well) and incubated at 37° C. for 15 min with positive control compound 48/80 (final concentration: 4 μg/mL), test example compounds (final concentration: 10 μM) or vehicle control. The cells were centrifuged, and cell supernatant was collected and tested for histamine concentration according to LDN Histamine ELISA kit (BAE-1000) instructions.
Background: ELISA stands for enzyme-linked immunosorbent assay.

Square brackets hold non-standard residues; d marks the D form. Peptide text beside a SMILES is read from it. * marks the point of attachment. Cys(free,S-linked) = N[C@@H](CS*)C(=O)O; d(hPhe) = N[C@H](CCc1ccccc1)C(=O)O; dCha = N[C@H](CC1CCCCC1)C(=O)O; dChg = N[C@@H](C(=O)O)C1CCCCC1; dPhg = N[C@@H](C(=O)O)c1ccccc1; dTle = CC(C)(C)[C@@H](N)C(=O)O

Consider `CC(=O)N[C@H](CSSC[C@H](N)C(=O)O)C(=O)N[C@H](Cc1c[nH]cn1)C(=O)N[C@H](CCCNC(=N)N)C(=O)N[C@H](CCCNC(=N)N)C(=O)N[C@H](CCCNC(=N)N)C(=O)NCC(=O)N[C@H](CCCNC(=N)N)C(N)=O` [Compound 7, Ac-c(C)-h-r-r-r-G-r-NH2] (Ac-[dC](Cys(free,S-linked))[dH][dR][dR][dR]G[dR]-NH2), for which, in series [1], the EC50 stood at 18.6 µM. Moreover, the “Relative fold of histamine release in vitro” value (from here on “Relative fold”) in series [2] is listed as 2.24.
For `CC(=O)N[C@H](CSSC[C@H](N)C(=O)O)C(=O)N[C@H](CO)C(=O)N[C@H](CCCNC(=N)N)C(=O)N[C@H](CCCNC(=N)N)C(=O)N[C@H](CCCNC(=N)N)C(=O)NCC(=O)N[C@H](CCCNC(=N)N)C(N)=O` [Compound 8, Ac-c(C)-s-r-r-r-G-r-NH2] (Ac-[dC](Cys(free,S-linked))[dS][dR][dR][dR]G[dR]-NH2), in that order: 14.3 µM and 1.50.
In the same order, the values of `CC(=O)N[C@H](CSSC[C@H](N)C(=O)O)C(=O)N[C@H](Cc1c[nH]cn1)C(=O)N[C@H](CCCNC(=N)N)C(=O)N[C@H](CCCNC(=N)N)C(=O)N[C@H](CCCNC(=N)N)C(=O)N[C@H](CO)C(=O)N[C@H](CCCNC(=N)N)C(N)=O` [Compound 10, Ac-c(C)-h-r-r-r-s-r-NH2] (Ac-[dC](Cys(free,S-linked))[dH][dR][dR][dR][dS][dR]-NH2) are 3.52 µM and 3.66.
In the same order, the values of `CC(=O)N[C@H](CSSC[C@H](N)C(=O)O)C(=O)N[C@H](CCCNC(=N)N)C(=O)N[C@H](CCCNC(=N)N)C(=O)N[C@@H](C(=O)N[C@H](CCCNC(=N)N)C(=O)N[C@H](C)C(=O)N[C@H](CCCNC(=N)N)C(N)=O)c1ccccc1` [Compound 11, Ac-c(C)-r-r-(D-Phg)-r-a-r-NH2] (Ac-[dC](Cys(free,S-linked))[dR][dR][dPhg][dR][dA][dR]-NH2) are 15.7 µM and 1.11.
Take `CC(=O)N[C@H](CSSC[C@H](N)C(=O)O)C(=O)N[C@H](CCCNC(=N)N)C(=O)N[C@H](CCCNC(=N)N)C(=O)N[C@H](CCc1ccccc1)C(=O)N[C@H](CCCNC(=N)N)C(=O)N[C@H](C)C(=O)N[C@H](CCCNC(=N)N)C(N)=O` [Compound 16, Ac-c(C)-r-r-(D-hPhe)-r-a-r-NH2] (Ac-[dC](Cys(free,S-linked))[dR][dR][d(hPhe)][dR][dA][dR]-NH2): the EC50 in series [1] was 2.37 µM. Also, the “Relative fold” value in series [2] is listed as 2.94.
In the case of `CC(=O)N[C@H](CSSC[C@H](N)C(=O)O)C(=O)N[C@H](CCCNC(=N)N)C(=O)N[C@H](CCCNC(=N)N)C(=O)N[C@@H](C(=O)N[C@H](CCCNC(=N)N)C(=O)N[C@H](C)C(=O)N[C@H](CCCNC(=N)N)C(N)=O)C(C)(C)C` [Compound 18, Ac-c(C)-r-r-(D-Tle)-r-a-r-NH2] (Ac-[dC](Cys(free,S-linked))[dR][dR][dTle][dR][dA][dR]-NH2), the EC50 in series [1] came out at 13.4 µM. In addition, the “Relative fold” value in series [2] was determined as 1.24.
In the same order, the values of `CC(=O)N[C@H](CSSC[C@H](N)C(=O)O)C(=O)N[C@H](CCCNC(=N)N)C(=O)N[C@H](CCCNC(=N)N)C(=O)N[C@@H](C(=O)N[C@H](CCCNC(=N)N)C(=O)N[C@H](C)C(=O)N[C@H](CCCNC(=N)N)C(N)=O)C1CCCCC1` [Compound 20, Ac-c(C)-r-r-(D-Chg)-r-a-r-NH2] (Ac-[dC](Cys(free,S-linked))[dR][dR][dChg][dR][dA][dR]-NH2) are 7.53 µM and 2.33.
For `CC(=O)N[C@H](CSSC[C@H](N)C(=O)O)C(=O)N[C@H](CCCNC(=N)N)C(=O)N[C@H](CCCNC(=N)N)C(=O)N[C@H](CC1CCCCC1)C(=O)N[C@H](CCCNC(=N)N)C(=O)N[C@H](C)C(=O)N[C@H](CCCNC(=N)N)C(N)=O` [Compound 21, Ac-c(C)-r-r-(D-Cha)-r-a-r-NH2] (Ac-[dC](Cys(free,S-linked))[dR][dR][dCha][dR][dA][dR]-NH2), in that order: 5.59 µM and 3.42.
In the case of `CC(=O)N[C@H](CSSC[C@H](N)C(=O)O)C(=O)N[C@H](CCCNC(=N)N)C(=O)N[C@H](CCCNC(=N)N)C(=O)N[C@H](CO)C(=O)N[C@H](CCCNC(=N)N)C(=O)NCC(=O)N[C@H](CCCNC(=N)N)C(N)=O` [Compound 22, Ac-c(C)-r-r-s-r-G-r-NH2] (Ac-[dC](Cys(free,S-linked))[dR][dR][dS][dR]G[dR]-NH2), in series [1], the EC50 amounted to 15.4 µM. The “Relative fold” value in series [2] is 1.63.
`CC(=O)N[C@H](CSSC[C@H](N)C(=O)O)C(=O)N[C@H](CCCNC(=N)N)C(=O)N[C@H](CCCNC(=N)N)C(=O)N[C@H](Cc1ccc(O)cc1)C(=O)N[C@H](CCCNC(=N)N)C(=O)N[C@H](C)C(=O)N[C@H](CCCNC(=N)N)C(N)=O` [Compound 24, Ac-c(C)-r-r-y-r-a-r-NH2] (Ac-[dC](Cys(free,S-linked))[dR][dR][dY][dR][dA][dR]-NH2): the EC50 in series [1] stood at 2.03 µM. For the same compound, in series [2], the “Relative fold” value is on record as 3.18.
For `CC(=O)N[C@H](CSSC[C@H](N)C(=O)O)C(=O)N[C@H](CCCNC(=N)N)C(=O)N[C@H](CCCNC(=N)N)C(=O)N[C@H](CO)C(=O)N[C@H](CCCNC(=N)N)C(=O)N[C@H](CO)C(=O)N[C@H](CCCNC(=N)N)C(N)=O` [Compound 25, Ac-c(C)-r-r-s-r-s-r-NH2] (Ac-[dC](Cys(free,S-linked))[dR][dR][dS][dR][dS][dR]-NH2), the EC50 in series [1] turned out to be 10.1 µM. The “Relative fold” value in series [2] amounted to 1.65.
Regarding `CC(=O)N[C@H](CSSC[C@H](N)C(=O)O)C(=O)N[C@H](CCCNC(=N)N)C(=O)N[C@H](CCCNC(=N)N)C(=O)N[C@H](CCC(N)=O)C(=O)N[C@H](CCCNC(=N)N)C(=O)N[C@H](CO)C(=O)N[C@H](CCCNC(=N)N)C(N)=O` [Compound 26, Ac-c(C)-r-r-q-r-s-r-NH2] (Ac-[dC](Cys(free,S-linked))[dR][dR][dQ][dR][dS][dR]-NH2), in series [1], the EC50 amounted to 9.24 µM. For the same compound, the “Relative fold” value in series [2] was 1.73.
On to `CC(=O)N[C@H](CSSC[C@H](N)C(=O)O)C(=O)N[C@H](CCCNC(=N)N)C(=O)N[C@H](CCCNC(=N)N)C(=O)N[C@H](Cc1c[nH]cn1)C(=O)N[C@H](CCCNC(=N)N)C(=O)N[C@H](CO)C(=O)N[C@H](CCCNC(=N)N)C(N)=O` [Compound 27, Ac-c(C)-r-r-h-r-s-r-NH2] (Ac-[dC](Cys(free,S-linked))[dR][dR][dH][dR][dS][dR]-NH2), for which, in series [1], the EC50 was found to be 10.8 µM. The “Relative fold” value in series [2] is on record as 2.23.

In general, EC50 refers to the concentration at which the effect is half-maximal.
